Columns and labels:
[1] = tested on: HCV genotype 1b wild type; assay: HCV replicon assay, genotype 1b wild type; format: cell-based; conditions: Hepatitis C virus, HCV replicon cells, read-out: EC50 G 1b wild type
Experimental: (§1) An HCV Replicon assay was utilized in the present disclosure, and was prepared, conducted and validated as described in commonly owned PCT/US2006/022197 and in O'Boyle et. al. Antimicrob Agents Chemother. 2005 April; 49(4):1346-53. Recommended assay methods incorporating luciferase reporters have also been used as described from commercial sources (Apath.com).
(§2) HCV-neo replicon cells and replicon cells containing resistance substitutions in the NS5A region were used to test the currently described family of compounds. The compounds were determined to have differing degrees of reduced inhibitory activity on cells containing mutations vs. the corresponding inhibitory potency against wild-type cells. Thus, the compounds of the present disclosure can be effective in inhibiting the function of the HCV NS5A protein and are understood to be as effective in combinations as previously described in application PCT/US2006/022197 and commonly owned WO/04014852. It should be understood that the compounds of the present disclosure can inhibit multiple genotypes of HCV.

[2] = tested on: HCV genotype 1b LV/YH double resistant mutant; assay: HCV replicon assay, genotype 1b LV/YH double resistant mutant; format: cell-based; conditions: Hepatitis C virus, read-out: EC50 G 1b LV/YH
Experimental: as §1, §2

[3] = IV and PO single dose pharmacokinetic studies in rat; format: in vivo; conditions: male Sprague-Dawley rats, plasma; for AUC: oral gavage 5 mg/kg, 24 h, read-out: 24 h rat PK (Auc); for bioavailability: oral gavage 5 mg/kg vs IV infusion 2 mg/kg, read-out: 24 h rat PK (oral bioavailability)
Experimental: The pharmacokinetics of Examples 1 to 6 and Compound-A (WO2008/021927) were characterized in male Sprague-Dawley rats (260-310 g) (see Table 2). In these studies, two groups of animals (N=3 per group) received compound either as an intravenous (IV) infusion (2 mg/kg over 10 minutes) via the jugular vein or by oral gavage (5 mg/kg) in a vehicle of 100% PEG 400 or 90:5:5 PEG 400:ethanol:TPGS, respectively. The rats in the oral dosing group were fasted overnight. Serial blood samples were obtained at 0.17 (IV only), 0.25, 0.5, 0.75, 1, 2, 4, 6, 8, and 24 h post dose. Blood samples (˜0.3 mL) were collected from the jugular vein into K3EDTA-containing tubes and then centrifuged at 4° C. (1500-2000×g) to obtain plasma. Plasma samples were stored at −20° C. until analysis by LC/MS/MS.
A bioanalytical method utilizing liquid chromatography separation followed by tandem mass spectrometry detection (LC/MS/MS) was developed for the compound analysis in rat plasma. Detection was performed using selected reaction monitoring. Ions representing the precursor (M+H)^+ species were selected in quadrupole 1 and collisionally dissociated with N2 to generate specific product ions, which were subsequently monitored by quadrupole 3. Standard curves were prepared in male rat plasma and processed in the same manner as test samples to generate quantitative data.
Pharmacokinetic parameter values were calculated using noncompartmental methods by Kinetica. Values below the lower limit of quantification (LLOQ) were not used in calculations. Area under the curve (AUC) was calculated using the linear trapezoidal rule.

[4] = Cytotoxicity (CC50) in G 1a replicon cells; format: cell-based; conditions: HCV G 1a replicon cells
Experimental: as §1

[5] = tested on: genotype-1a YH single resistant mutant; assay: HCV replicon assay, genotype-1a YH single resistant mutant; format: cell-based; conditions: Hepatitis C virus, read-out: EC50 G 1a YH
Experimental: as §1, §2

HCV genotype 1a = assay: HCV replicon assay, genotype 1a; format: cell-based; conditions: Hepatitis C virus; HCV replicon cells, genotype 1a wild type; read-out: EC50 G 1a wild type
Experimental: as §1, §2

Row | Structure (SMILES) | EC50 [1] | EC50 [2] | AUC [3] | bioavailability [3] | CC50 [4] | EC50 [5] | EC50 (HCV genotype 1a)
1 | COC(=O)N[C@H](C(=O)N1[C@H](c2nc(-c3ccc(-c4ccc(-c5c[nH]c([C@@H]6C[C@@]7(C)C[C@H]7N6C(=O)[C@@H](NC(=O)OC)C6C[C@@H](C)O[C@H](C)C6)n5)cc4)cc3)c[nH]2)C[C@@]2(C)C[C@@H]12)C1C[C@@H](C)O[C@H](C)C1 (stereo partly shown) [Example-5] | 0.00685 nM | 0.00985 nM | 0.539 µM·h | 6.3% | 5340 nM | 0.0607 nM | 0.00372 nM
2 | COC(=O)N[C@H](C(=O)N1[C@@H](C)CC[C@H]1c1nc(-c2ccc(-c3ccc(-c4c[nH]c([C@@H]5CC[C@H](C)N5C(=O)[C@@H](NC(=O)OC)C5C[C@@H](C)O[C@H](C)C5)n4)c(C)c3)cc2)c[nH]1)C1C[C@@H](C)O[C@H](C)C1 (stereo partly shown) [Example-3] | 0.00641 nM | 0.191 nM | 4.49 µM·h | 17% | 6150 nM | 1.08 nM | 0.0052 nM
3 | COC(=O)N[C@H](C(=O)N1[C@@H](C)CC[C@H]1c1nc(-c2ccc(-c3ccc(-c4c[nH]c([C@@H]5CC[C@H](C)N5C(=O)[C@@H](NC(=O)OC)C5C[C@@H](C)O[C@H](C)C5)n4)c(F)c3)cc2)c[nH]1)C1C[C@@H](C)O[C@H](C)C1 (stereo partly shown) [Example-4] | 0.00415 nM | 0.436 nM | 1.73 µM·h | 16% | 7750 nM | 0.402 nM | 0.00595 nM
4 | COC(=O)N[C@H](C(=O)N1[C@@H](C)CC[C@H]1c1nc(-c2ccc(-c3ccc(-c4c[nH]c([C@@H]5CC[C@H](C)N5C(=O)[C@@H](NC(=O)OC)[C@H]5C[C@@H](C)O[C@@H](C)C5)n4)cc3)cc2)c[nH]1)[C@@H]1C[C@@H](C)O[C@@H](C)C1 [Example-1] | 0.00396 nM | 3.19 nM | 1.6 µM·h | 15% | 8460 nM | 0.977 nM | 0.00548 nM
5 | COC(=O)N[C@H](C(=O)N1[C@@H](C)CC[C@H]1c1nc(-c2ccc(-c3ccc(-c4c[nH]c([C@@H]5CC[C@H](C)N5C(=O)[C@@H](NC(=O)OC)C5C[C@@H](C)O[C@H](C)C5)n4)cc3)cc2)c[nH]1)C1C[C@@H](C)O[C@H](C)C1 (stereo partly drawn) [Example-2, Dimethyl(4,4′-biphenyldiylbis(1H-imidazole-4,2-diyl((2S,5S)-5-methyl-2,1-pyrrolidinediyl)((1S)-1-((2R,6R)-2,6-dimethyltetrahydro-2H-pyran-4-yl)-2-oxo-2,1-ethanediyl)))biscarbamate] | 0.00803 nM | 0.115 nM | 2.22 µM·h | 12% | 5890 nM | 0.158 nM | 0.00643 nM
6 | COC(=O)N[C@H](C(=O)N1CCC[C@H]1c1nc(-c2ccc(-c3ccc(-c4c[nH]c([C@@H]5CCCN5C(=O)[C@@H](NC(=O)OC)C5C[C@@H](C)O[C@H](C)C5)n4)cc3)cc2)c[nH]1)C1C[C@@H](C)O[C@H](C)C1 (stereo partly shown) [Example-6] | 0.0367 nM | 0.659 nM | 1.36 µM·h | 5% | 15400 nM | 0.383 nM | 0.0162 nM
7 | COC(=O)N[C@H](C(=O)N1CCC[C@H]1c1nc(-c2ccc(-c3ccc(-c4c[nH]c([C@@H]5CCCN5C(=O)[C@@H](NC(=O)OC)C5CCOCC5)n4)cc3)cc2)c[nH]1)C1CCOCC1 [Compound-A, reference compound] | 0.119 nM | 20 nM | 0.103 µM·h | 1.3% | 63900 nM | 13 nM | 0.0511 nM

Reference: patent publication US9340520B2, “Hepatitis C virus inhibitors” (Bristol-Myers Squibb Company, priority 2011, dated 2016)
